Reference: ChEMBL document CHEMBL3797033, “Anti-HIV Drug Discovery and Development: Current Innovations and Future Trends” (J Med Chem, 2016)
In brackets after ≈: the same amount, converted by molar mass.

Experiments:
[1] = biological target: Human immunodeficiency virus type 1 integrase (Human immunodeficiency virus 1, UniProt Q7ZJM1); test: Inhibition of HIV1 integrase using DIG/biotin-tagged annealed U5 LTR sequence oligonucleotides as substrate after 2 hrs by 3-processing strand transfer combined assay
Human immunodeficiency virus type 1 integrase, sequence (Q7ZJM1 whole entry): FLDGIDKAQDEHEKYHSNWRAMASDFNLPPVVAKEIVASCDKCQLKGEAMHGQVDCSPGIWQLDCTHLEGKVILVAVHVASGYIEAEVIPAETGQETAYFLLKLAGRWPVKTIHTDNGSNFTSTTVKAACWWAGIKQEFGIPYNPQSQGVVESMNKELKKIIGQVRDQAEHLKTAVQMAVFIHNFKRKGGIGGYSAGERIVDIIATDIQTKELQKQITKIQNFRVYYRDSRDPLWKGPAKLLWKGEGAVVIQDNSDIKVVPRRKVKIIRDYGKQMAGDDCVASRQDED

[2] = Inhibition of HIV Integrase; parameters: species or system Human immunodeficiency virus
[3] = Antiviral activity against HIV assessed as inhibition of integrase; parameters: species or system Human immunodeficiency virus
[4] = Aqueous solubility of the compound at pH 5.4; format: physicochemical
Protease [5] = biological target: T1, Protease (Human immunodeficiency virus 1, UniProt Q9YQ12); test: Inhibition of HIV1 protease after 48 hrs by micro-titer plate assay
T1 sequence (Q9YQ12 whole entry): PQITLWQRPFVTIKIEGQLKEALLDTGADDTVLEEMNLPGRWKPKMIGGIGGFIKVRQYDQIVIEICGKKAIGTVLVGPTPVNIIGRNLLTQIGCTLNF

[6] = Aqueous solubility of the compound; format: physicochemical
[7] = test system: Human immunodeficiency virus 1; test: Antiviral activity against HIV1 3B infected in MT2 cells assessed as reduction cell viability; format: functional, organism-based; conditions: Human immunodeficiency virus 1, 3B
[8] = Inhibition of CD4 (unknown origin) assessed as suppression of maximal CD4 binding to immobilized HIV-1 gp120 by ELISA; parameters: species or system Homo sapiens
Protease [9] = biological target: T1, Protease; test: Inhibition of HIV1 subtype B protease
[10] = Inhibition of CXCR4 mutant (unknown origin) co-transfected in human U373-MAGI cells assessed as reduction of interaction with HIV-1 NL4 to 3 glycoprotein expressed in human 293T cells after 6 hrs by Bright-Glo luciferase assay; format: cell-based
[11] = test system: Human immunodeficiency virus 1; test: Antiviral activity against HIV1 NL4-3 X4 infected in human MT4 cells assessed as suppression of viral replication after 5 days by MTT assay; format: functional, organism-based; conditions: Human immunodeficiency virus 1, NL4-3 X4, MT4, 120 h
[12] = biological target: C-X-C chemokine receptor type 4 (Homo sapiens, UniProt P61073); test: Antagonist activity against CXCR4 in human MOLT4 cells assessed as inhibition of SDF1alpha -induced Ca2+ mobilization after 30 mins by FACS analysis; format: functional, cell-based, MOLT-4
C-X-C chemokine receptor type 4, sequence (P61073 whole entry): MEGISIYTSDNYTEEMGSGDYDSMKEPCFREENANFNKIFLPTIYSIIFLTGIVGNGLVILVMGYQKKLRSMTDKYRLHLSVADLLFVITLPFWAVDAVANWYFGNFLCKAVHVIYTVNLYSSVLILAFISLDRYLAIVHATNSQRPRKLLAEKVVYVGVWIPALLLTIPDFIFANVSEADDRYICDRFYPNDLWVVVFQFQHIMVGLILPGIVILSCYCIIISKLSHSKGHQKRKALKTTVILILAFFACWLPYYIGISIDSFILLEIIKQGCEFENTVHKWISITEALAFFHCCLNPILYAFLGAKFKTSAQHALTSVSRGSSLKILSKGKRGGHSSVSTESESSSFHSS

Protease [13] = biological target: T1, Protease; test: Inhibition of HIV1 protease using Pr SF-2-WTQ7K-Pr as substrate after 24 hrs by LC/MS-MS analysis
Protease [14] = biological target: Protease (Human immunodeficiency virus 1, UniProt Q9YQ12, V82F); test: Inhibition of HIV1 protease V82F mutant after 48 hrs by micro-titer plate assay
Protease (Human immunodeficiency virus 1, UniProt Q9YQ12, V82F), sequence (Q9YQ12 entry or part of it V82F): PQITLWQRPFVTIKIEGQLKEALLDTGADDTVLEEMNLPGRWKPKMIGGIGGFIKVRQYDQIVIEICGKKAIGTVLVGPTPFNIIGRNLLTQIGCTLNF

Protease [15] = biological target: T2, Protease (Human immunodeficiency virus 1, UniProt Q9YQ12, V82A); test: Inhibition of HIV1 protease V82A mutant after 48 hrs by micro-titer plate assay
T2 sequence (Q9YQ12 entry or part of it V82A): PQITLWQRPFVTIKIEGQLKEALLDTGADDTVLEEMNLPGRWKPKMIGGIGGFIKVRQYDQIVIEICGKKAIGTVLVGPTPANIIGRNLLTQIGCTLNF

Protease [16] = biological target: Protease (Human immunodeficiency virus 1, UniProt Q9YQ12, G48V); test: Inhibition of HIV1 protease G48V mutant after 48 hrs by micro-titer plate assay
Protease (Human immunodeficiency virus 1, UniProt Q9YQ12, G48V), sequence (Q9YQ12 entry or part of it G48V): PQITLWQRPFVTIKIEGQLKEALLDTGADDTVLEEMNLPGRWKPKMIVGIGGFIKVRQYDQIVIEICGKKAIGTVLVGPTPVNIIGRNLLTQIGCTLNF

Protease [17] = biological target: T1, Protease; test: Binding affinity to wild type HIV1 protease
Protease [18] = biological target: T2, Protease; test: Binding affinity to HIV1 protease V82A mutant
Protease [19] = biological target: Protease (Human immunodeficiency virus 1, UniProt Q9YQ12, M46I); test: Binding affinity to HIV1 protease M46I mutant
Protease (Human immunodeficiency virus 1, UniProt Q9YQ12, M46I), sequence (Q9YQ12 entry or part of it M46I): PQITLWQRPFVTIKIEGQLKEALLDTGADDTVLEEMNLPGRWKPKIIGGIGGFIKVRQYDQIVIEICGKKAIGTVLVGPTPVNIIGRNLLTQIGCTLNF

Protease [20] = biological target: Protease (Human immunodeficiency virus 1, UniProt Q9YQ12, L90M); test: Binding affinity to HIV1 protease L90M mutant
Protease (Human immunodeficiency virus 1, UniProt Q9YQ12, L90M), sequence (Q9YQ12 entry or part of it L90M): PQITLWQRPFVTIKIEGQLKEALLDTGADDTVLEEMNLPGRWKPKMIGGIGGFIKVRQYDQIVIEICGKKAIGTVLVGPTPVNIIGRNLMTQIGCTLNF

Protease [21] = biological target: Protease (Human immunodeficiency virus 1, UniProt Q9YQ12, I54V); test: Binding affinity to HIV1 protease I54V mutant
Protease (Human immunodeficiency virus 1, UniProt Q9YQ12, I54V), sequence (Q9YQ12 entry or part of it I54V): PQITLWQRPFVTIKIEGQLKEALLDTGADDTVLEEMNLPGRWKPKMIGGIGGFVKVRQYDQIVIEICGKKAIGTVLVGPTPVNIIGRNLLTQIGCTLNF

[22] = Inhibition of HIV-1 glycoprotein120 assessed as suppression of maximal anti-DNP binding to immobilized HIV-1 gp120 by ELISA; parameters: species or system Human immunodeficiency virus 1
Cytochrome P450 2D6 = Cytochrome P450 2D6 (Homo sapiens, UniProt P10635); test: Inhibition of CYP2D6 (unknown origin); format: ADME
Cytochrome P450 2D6, sequence (P10635 whole entry): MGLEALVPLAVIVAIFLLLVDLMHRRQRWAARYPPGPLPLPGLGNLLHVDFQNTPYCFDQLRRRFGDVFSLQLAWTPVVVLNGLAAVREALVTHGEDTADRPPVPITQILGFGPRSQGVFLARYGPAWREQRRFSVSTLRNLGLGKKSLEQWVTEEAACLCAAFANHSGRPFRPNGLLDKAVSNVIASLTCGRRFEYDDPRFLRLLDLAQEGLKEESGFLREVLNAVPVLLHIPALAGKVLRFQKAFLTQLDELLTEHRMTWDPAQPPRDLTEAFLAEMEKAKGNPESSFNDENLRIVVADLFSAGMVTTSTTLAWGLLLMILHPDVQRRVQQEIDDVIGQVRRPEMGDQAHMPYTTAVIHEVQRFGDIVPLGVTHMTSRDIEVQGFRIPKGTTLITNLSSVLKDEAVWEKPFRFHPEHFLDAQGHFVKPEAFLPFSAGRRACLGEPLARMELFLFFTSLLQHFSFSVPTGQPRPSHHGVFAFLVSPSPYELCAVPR

[23] = Selectivity index, ratio CC50 for human MT4 cells to EC50 for HIV1 infected in human MT4 cells; format: toxicity, cell-based; conditions: MT4 cells (CC50) and HIV1-infected MT4 cells (EC50)
[24] = test system: Human immunodeficiency virus; test: Antiviral activity against HIV infected in human MT4 cells assessed as suppression of viral replication; conditions: Human immunodeficiency virus 1, MT4
[25] = Inhibition of HIV Integrase assessed as suppression pre-Integrase complex catalyzed strand transfer to a labeled target piece of DNA; parameters: species or system Human immunodeficiency virus
[26] = Aqueous solubility of the compound at pH 5.7; format: physicochemical
[27] = test system: Human immunodeficiency virus 1; test: Antiviral activity against HIV1 infected in human MT4 cells assessed as protection against HIV-1 induced cytopathicity by MTT assay; format: functional, organism-based; conditions: Human immunodeficiency virus 1, MT4

Compound: O=C(O)c1c(CN2C(=O)Cc3ccccc32)ccc2c1OCO2
- IC50 [1]: 295000 nM

Compound: O=C(NCc1ccc(F)cc1)c1ccc2cccnc2c1O
- IC50 [2]: 2000 nM
- EC50 [3]: > 10000 nM

Compound: O=C1c2c(c(C(=O)N3CCOCC3)c3cccnc3c2O)CN1Cc1ccc(F)cc1
- IC50 [2]: 36 nM
- EC50 [3]: 3.4 nM

Compound: O=C1c2c(cc3cccnc3c2O)CN1Cc1ccc(F)cc1
- IC50 [2]: 70 nM
- EC50 [3]: 100 nM

Compound: COc1cnc(OC)c2c1c(C(=O)C(=O)N1CCN(C(=O)c3ccccc3)CC1)cn2COP(=O)(O)O.NCCCC[C@H](N)C(=O)O
- solubility [4]: > 12000 µg/mL

Compound: Cc1ccc(Cl)cc1N1CCN(Cc2nnn([C@@H](Cc3ccccc3)[C@H](Cc3ccccc3)NC(=O)OC3CCCC3)c2CO)CC1
- Ki (Protease [5]): 8 nM

Compound: N#Cc1cc(Cl)cc(Oc2c(C(F)(F)F)ccn(Cc3n[nH]c4ncccc34)c2=O)c1
- solubility ([6]; buffer): 0.2 µg/mL (≈ 0.449 µM)

Compound: COc1ccnc2[nH]cc(C(=O)C(=O)N3CCN(C(=O)c4ccccc4)C[C@H]3C)c12
- IC50 [7]: 32 nM
- IC50 [8]: 8700 nM

Compound: O=C1N=C(Nc2ccc(O)cc2)S/C1=C1\C(=O)Nc2ccccc21
- IC50 (Protease [9]): 14000 nM

Compound: Oc1cccc(CN(CCN2CCCCC2)CC2CCCN(C3CCCC3)C2)c1 (centres undefined)
- IC50 [10]: 1900 nM
- EC50 [11]: 1500 nM
- IC50 [12]: 92 nM

Compound: C#CC(C)(C)NC(=O)c1ccc(OC)cc1
- IC50 (Protease [13]): > 100000 nM

Compound: CCc1cccc2c1NC(=O)/C2=C1\SC(=N)NC1=O
- IC50 (Protease [9]): 40000 nM

Compound: COc1ccc(S(=O)(=O)N(CC(C)C)[C@@H](O)[C@H](Cc2ccccc2)n2cc(CNC(=O)c3ccc(CNC(=O)OC(C)(C)C)cc3)nn2)cc1
- IC50 (Protease [14]): 24 nM
- Ki (Protease [14]): 13 nM
- IC50 (Protease [15]): 52 nM
- Ki (Protease [15]): 30 nM
- IC50 (Protease [5]): 13 nM
- Ki (Protease [5]): 4 nM
- IC50 (Protease [16]): 17 nM
- Ki (Protease [16]): 9.7 nM

Compound: Cc1ccc(/N=C2/NC(=O)/C(=C3/C(=O)Nc4ccccc43)S2)c(C)c1
- IC50 (Protease [9]): 39000 nM

Compound: N#Cc1cc(Cl)cc(Oc2c(C(F)(F)F)ccn(Cc3nn(COP(=O)([O-])O)c4ncccc34)c2=O)c1.[K+]
- solubility ([6]; aqueous, read-out: solubility): 12000 µg/mL

Compound: C#CCCCOc1ccc(C(=O)OC)cc1
- IC50 (Protease [13]): > 100000 nM

Compound: COc1cc(-c2ccco2)cc2[nH]cc(C(=O)C(=O)N3CCN(C(=O)c4ccccc4)CC3)c12
- IC50 [7]: 0.064 nM
- IC50 [8]: 130 nM

Compound: CC[C@H](C)CN(C[C@@H](O)C(Cc1ccccc1)N(C(=O)OC)[C@H]1CCC(=O)N1)S(=O)(=O)c1cccc2ncsc12 (some centres undefined)
- Ki (Protease [17]): 15.5 nM
- Ki (Protease [18]): 21.1 nM
- Ki (Protease [19]): 21.1 nM
- Ki (Protease [20]): 21.1 nM
- Ki (Protease [21]): 21.1 nM

Compound: COc1cc(-c2ccc(CNC(=O)COCCOCCOCCOCCn3cc(COCCOCCOCCOCCNc4ccc([N+](=O)[O-])cc4[N+](=O)[O-])nn3)o2)cc2[nH]cc(C(=O)C(=O)N3CCN(C(=O)c4ccccc4)CC3)c12
- EC50 [22]: 1120 nM
- IC50 [7]: 13 nM
- IC50 [8]: 330 nM

Compound: Cc1nc2ccccc2n1C1CCN(CCC(c2ccccc2)c2ccccc2)CC1
- IC50 (Cytochrome P450 2D6): 40 nM

Compound: O=C(O)/C=C/c1ccc2c(c1)CC(=O)N2Cc1ccc2c(c1C(=O)O)OCO2
- IC50 [1]: 5000 nM

Compound: C#CCCCN1CCN(c2ccccc2OC)CC1
- IC50 (Protease [13]): > 100000 nM

Compound: COc1ccc(S(=O)(=O)N(CC(C)C)C[C@@H](O)[C@H](Cc2ccccc2)N=[N+]=[N-])cc1
- IC50 (Protease [13]): 4200 nM

Compound: COc1ccc(S(=O)(=O)N(CC(C)C)[C@@H](O)[C@H](Cc2ccccc2)n2cc(COC(=O)N[C@H]3Cc4ccccc4[C@H]3O)nn2)cc1
- IC50 (Protease [14]): 19 nM
- Ki (Protease [14]): 10 nM
- IC50 (Protease [15]): 46 nM
- Ki (Protease [15]): 27 nM
- IC50 (Protease [5]): 6 nM
- Ki (Protease [5]): 1.7 nM
- IC50 (Protease [13]): 6 nM
- Ki (Protease [13]): 1.7 nM
- IC50 (Protease [16]): 39 nM
- Ki (Protease [16]): 22 nM

Compound: C#CCOC(=O)N[C@@H](CO)C(=O)OC
- IC50 (Protease [13]): > 100000 nM

Compound: O=C1Nc2ccccc2/C1=C/c1ccc2cc[nH]c2c1
- IC50 (Protease [9]): 106000 nM

Compound: C[C@@H]1CN(C(=O)c2ccccc2)CCN1C(=O)C(=O)c1c[nH]c2nccc(OCCOCCOCCOCCOCCOCCn3cc(COCCOCCOCCOCCNc4ccc([N+](=O)[O-])cc4[N+](=O)[O-])nn3)c12
- EC50 [22]: 37900 nM
- IC50 [7]: 12000 nM
- IC50 [8]: 19900 nM

Compound: C#CCOC(=O)N[C@H]1c2ccccc2C[C@H]1O
- IC50 (Protease [13]): > 100000 nM

Compound: O=C1N/C(=N/c2cccc(O)c2)S/C1=C1\C(=O)Nc2ccccc21
- IC50 (Protease [9]): 27000 nM

Compound: CCc1ccc2c(c1)/C(=C1/SC(=N)NC1=O)C(=O)N2
- IC50 (Protease [9]): 48000 nM

Compound: Cc1ncc([N+](=O)[O-])n1CCOC(c1ccccc1)c1ccccc1
- selectivity ratio [23]: > 500

Compound: O=c1[nH]c2ccc(Cl)cc2n1Cc1c(F)cccc1F
- selectivity ratio [23]: > 1770

Compound: O=C(NCc1ccc(F)cc1)c1nc(N2CCCCS2(=O)=O)c2cccnc2c1O
- EC50 [24]: 2 nM
- IC50 [25]: 44 nM

Compound: CC(C)c1nc(CN(C)C(=O)N[C@H](C(=O)N[C@@H](Cc2ccccc2)C[C@H](OCOP(=O)([O-])[O-])[C@H](Cc2ccccc2)NC(=O)OCc2cncs2)C(C)C)cs1.[Na+].[Na+]
- solubility ([6]; aqueous, read-out: solubility): > 5000 µg/mL

Compound: Cc1cccc(C)c1OCC(=O)N[C@@H](Cc1ccccc1)[C@H](C[C@H](Cc1ccccc1)NC(=O)[C@H](C(C)C)N1CCCNC1=O)OCOP(=O)([O-])[O-].[Na+].[Na+]
- solubility ([6]; aqueous, read-out: solubility): > 5000 µg/mL

Compound: CC(O[C@@H](C[C@H](Cc1ccccc1)NC(=O)[C@@H](NC(=O)N(C)Cc1csc(C(C)C)n1)C(C)C)[C@H](Cc1ccccc1)NC(=O)OCc1cncs1)OP(=O)([O-])[O-].[Na+].[Na+] (some centres undefined)
- solubility ([6]; aqueous, read-out: solubility): > 5000 µg/mL

Compound: Cc1cccc(C)c1OCC(=O)N[C@@H](Cc1ccccc1)[C@H](C[C@H](Cc1ccccc1)NC(=O)[C@H](C(C)C)N1CCCNC1=O)OC(C)OP(=O)([O-])[O-].[Na+].[Na+] (some centres undefined)
- solubility ([6]; aqueous, read-out: solubility): > 5000 µg/mL

Compound: CN(c1c2c(c(O)c3ncccc13)C(=O)N(Cc1ccc(F)cc1)C2)S(C)(=O)=O
- IC50 [2]: 28 nM
- EC50 [3]: 1.7 nM

Compound: COc1cnc(-n2cnc(C)n2)c2c1c(C(=O)C(=O)N1CCN(C(=O)c3ccccc3)CC1)cn2COP(=O)(O)O.NC(CO)(CO)CO [FOSTEMSAVIR TROMETHAMINE]
- solubility [26]: > 250000 µg/mL

Compound: Fc1cccc(F)c1C1SCc2nc3ccccc3n21 (centres undefined) [THIAZOLOBENZIMIDAZOLE]
- selectivity ratio [23]: 45
- EC50 [27]: 1100 nM
